Patent publication US20230107216A1, “PANTETHEINE DERIVATIVES AND USES THEREOF” (Comet Therapeutics, Inc., priority 2018, published 2023)

Tests used:
[1] = test system: Vitamin B12 deficiency (Cbl−/− diet) mouse model; experiment: Vitamin B12 deficiency mouse model: bone marrow immunophenotyping (M1/M2 macrophages); format: in vivo, C57BL/6 mice; settings: 50 mpk IP BID; for Ratio of M1/M2 macrophages in bone marrow: mice on the cbl−/− diet (untreated: M1/M2 ratio of 6); for Ratio of M1/M2 macrophages compared with mice on a control diet: mice on the cbl−/− diet
Protocol: (§1) A vitamin B12 deficiency mouse model was used following the methods described at Ghosh et al 2016.
(§2) Animal maintenance and feeding. Female weanling C57BL/6 mice (n=65) were obtained at 3 weeks of age from Shanghai Sippe-Bk Lab Animal Co., Ltd. The mice were housed in a SPF environment and maintained at 20° C.±6, under standard lighting conditions (12-h light/dark cycle). Animals were divided into 5 animals per cage during modelling, and 3 animals per cage during compound test. The 3-week old mice were fed ad libitum with either AIN-76A control diet (D10001i) designated as control diet group or the same diet deficient in vitamin B12 (D07012902) with pectin as the source of fiber (designated as Cbl−/− cobalamin deficient) referred to as B12R+ by Ghosh et al. (Research Diets Inc., New Brunswick, N.J., USA). Cobalamin-restricted diet with pectin (B12R+) contained 50 g pectin/kg diet, because it has been shown earlier that pectin binds the intrinsic factor in the intestine and makes vitamin B12 less bioavailable. The control diet contained 50 g cellulose/kg diet as the fiber source instead of pectin. The mice also had ad libitum access to deionized water. Food intake and body weights were recorded every week.
Compound treatment. After 6 weeks of feeding on either control or Cbl−/− diet, 9-week-old mice on Cbl−/− diet were randomly assigned into 5 groups with 3 mice per group per treatment. Mice in each group were IP treated with vehicle (1% HPBCD, Sigma, H107) or were dosed at 50 mpk with Compound 1 or Compound 410 BID. One group of mice were sacrificed at 24h after the first dose. 2nd group of mice were sacrificed at 72h after the first dose. 3rd group of mice were sacrificed after 168h (i.e 7 days) after the first dose. 4th group of mice were fasted for 12h before sacrificing after 72h of the first dose. 5th group of mice were first fasted for 12h before any vehicle or compound treatment and sacrificed after 72h after the first dose.
Tissue and sample collection. At above specified timepoints, mice were weighed and anesthetized with CO2 before sample collection. For blood collection, the chest was opened to expose the heart. Up to 300 μl blood was drawn from the left ventricle with 1 ml syringe rinsed with EDTA-Na and dispensed into a K3EDTA mini collect tube (Greiner Bio-One) for haematology analysis. Then a new syringe was used to draw remaining blood from heart as much as possible. Serum was isolated by centrifugation at 5000 rpm for 10 min, aliquoted and kept at −80° C. until further use. For tissue collection after blood was drawn, mice were perfused with ice cold saline from the left ventricle. Heart, liver, kidney, spleen, brain was weighed after isolation. Then left leg was kept in ice cold PBS and bone marrow was isolated for further immunophenotype analysis. […]

[2] = test system: Vitamin B12 deficiency (Cbl−/− diet) mouse model; experiment: Vitamin B12 deficiency mouse model: liver protein determination (ELISA, TNFα, protein carbonyls); format: in vivo, C57BL/6 mice
Protocol: as §1, §2
Compound treatment. After 6 weeks of feeding on either control or Cbl−/− diet, 9-week-old mice on Cbl−/− diet were randomly assigned into 5 groups with 3 mice per group per treatment. […]

[3] = test system: Vitamin B12 deficiency (Cbl−/− diet) mouse model; experiment: Vitamin B12 deficiency mouse model: muscle strength by grip test; format: in vivo, mice; settings: after 17 days of 50 mpk QD, IP
Protocol: Mice at 18 weeks of age were either fed on control diet (n=12 mice) or cbl−/− diet (n=30 mice) for 15 weeks. Grip strength test was measured by using a Grip Strength test meter for mice and rats (Jiangsu, SANS Biological Technology, CO. LTD, SA417) and recorded as day zero grip strength analysis. Briefly, machine was turned on (push peak) and calibrated to zero. Front leg strength was measured by pulling the mice away from the bar by holding the tail of the mice. Total 5 values were measured for each mouse. After the measurement the cbl−/− mice were divided into three groups of N=10 mice per group. Each group received either vehicle (0.1% saline) or Compound 410 or Compound 500, IP at the dose of 50 mpk QD. […]

Row | SMILES | Ratio of M1/M2 macrophages in bone marrow [1] | Ratio of M1/M2 macrophages compared with mice on a control diet [1] | Protein Carbonyl in liver homogenates ([2]; mice on the cbl−/− diet (untreated 25.4 pg/ug; control diet 16.6 pg/ug)) [pg/µg] | TNF-α in liver homogenates ([2]; mice on the cbl−/− diet (untreated 171.8 pg/ug; control diet 121.46 pg/ug)) [pg/µg] | Grip strength ([3]; mice on the cbl−/− diet (36.5 g; control diet 59 g)) [g] | Recovery of grip strength ([3]; mice on the cbl−/− diet)
1 | CC(C)(CO)[C@@H](O)C(=O)NCCC(=O)NCCSC(=O)CCC(=O)O [Compound 1, (R)-4-((2-(3-(2,4-dihydroxy-3,3-dimethylbutanamido)propanamido)ethyl)thio)-4-oxobutanoic acid] | 3.967 | statistically indistinguishable |  |  |  | 
2 | COC(=O)CC(C(C)=O)C(=O)SCCNC(=O)CCNC(=O)[C@H](O)C(C)(C)CO (some centres unmarked) [Compound 410] | 3.87 | statistically indistinguishable | 11.1 | 62 | 57.7 | recovered grip strength to near the level of mice on the control diet
